Measured values taken from US20230277534A1 (Plexxikon Inc., priority 2011, published 2023).

What was measured:
[1] = tested on: IPC-298 human melanoma cell line that expresses activated NRAS; test: IPC-298_P-ERK cell activation assay (phosphorylated ERK, AlphaScreen); type: cell-based; details: IPC-298 cells, P-ERK activation
Protocol: B9 is a squamous cell carcinoma cell line expressing activated HRAS that was isolated from a DMBA/TPA-induced mouse model of skin carcinogenesis (Stoler, et al. The Journal of Cell Biology, 1993, 122(5), 1103-17). IPC-298 is a human melanoma cell line that expresses activated NRAS (Aubert, et al. International Journal of Cancer, 1993, 54(5), 784-92). To determine whether compounds induce phosphorylated ERK and MEK, cells are plated in a 96-well dish and treated with an 8-point titration of compound for one hour at 37° C. The media is then removed and the cells are incubated with lysis buffer containing protease and phosphatase inhibitors. Phosphorylated ERK and MEK in the resulting lysates is detected using AlphaScreen™ technology. To detect phosphorylated ERK, cell lysates are incubated with streptavidin-coated donor beads, anti-mouse IgG acceptor beads, a biotinylated anti-ERK1/2 rabbit antibody, and a mouse antibody that recognizes ERK1/2 only when it is phosphorylated on Thr202 and Tyr204. The biotinylated ERK1/2 antibody will bind to both the streptavidin-coated donor beads and to ERK1/2 (regardless of its phosphorylation state), and the phospho-ERK1/2 antibody will bind to the acceptor beads and to ERK1/2 that is phosphorylated at Thr202/Tyr204. Excitation of the beads with laser light at 680 nm produces singlet oxygen, which is rapidly quenched unless the beads are in close proximity. When ERK is phosphorylated, both antibodies can bind the same protein, bringing the donor and acceptor beads into close proximity, producing a signal that can be measured at 580 nm. MEK phosphorylation is detected using a similar approach, only with antibodies directed against total MEK1/2 and MEK1/2 that is phosphorylated at Ser217 and Ser221.

[2] = tested on: COLO205 colon adenocarcinoma cells (B-Raf V600E mutation); test: COLO205 cell growth inhibition (ATPlite); type: cell-based; details: Homo sapiens, COLO 205, 72 h, 3 days
How it was run: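 Cells treated for 3 days at 37 °C, 5% CO2 with an 8-point 1:3 dilution series, top final concentration 10 μM, DMSO control. ATPlite luminescence used as a measure of cell number; IC50 from reading versus concentration.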

B-Raf V600E = B-Raf V600E (Homo sapiens (Human), UniProt P15056, V600E); test: B-Raf V600E kinase biochemical activity assay (AlphaScreen, biotin-MEK1 substrate); details: 100 μM ATP
How it was run: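 B-Raf V600E (0.1 ng) phosphorylated 100 nM biotin-MEK1 with 100 μM ATP (final) in HEPES pH 7.0 with Mg2+/Mn2+ for 45 min at room temperature. Compounds were tested over an 8-point serial dilution. Phospho-MEK1/2 was detected by AlphaScreen after 3 h with beads, and IC50 came from signal versus concentration.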

Chain of B-Raf V600E (P15056 whole entry V600E): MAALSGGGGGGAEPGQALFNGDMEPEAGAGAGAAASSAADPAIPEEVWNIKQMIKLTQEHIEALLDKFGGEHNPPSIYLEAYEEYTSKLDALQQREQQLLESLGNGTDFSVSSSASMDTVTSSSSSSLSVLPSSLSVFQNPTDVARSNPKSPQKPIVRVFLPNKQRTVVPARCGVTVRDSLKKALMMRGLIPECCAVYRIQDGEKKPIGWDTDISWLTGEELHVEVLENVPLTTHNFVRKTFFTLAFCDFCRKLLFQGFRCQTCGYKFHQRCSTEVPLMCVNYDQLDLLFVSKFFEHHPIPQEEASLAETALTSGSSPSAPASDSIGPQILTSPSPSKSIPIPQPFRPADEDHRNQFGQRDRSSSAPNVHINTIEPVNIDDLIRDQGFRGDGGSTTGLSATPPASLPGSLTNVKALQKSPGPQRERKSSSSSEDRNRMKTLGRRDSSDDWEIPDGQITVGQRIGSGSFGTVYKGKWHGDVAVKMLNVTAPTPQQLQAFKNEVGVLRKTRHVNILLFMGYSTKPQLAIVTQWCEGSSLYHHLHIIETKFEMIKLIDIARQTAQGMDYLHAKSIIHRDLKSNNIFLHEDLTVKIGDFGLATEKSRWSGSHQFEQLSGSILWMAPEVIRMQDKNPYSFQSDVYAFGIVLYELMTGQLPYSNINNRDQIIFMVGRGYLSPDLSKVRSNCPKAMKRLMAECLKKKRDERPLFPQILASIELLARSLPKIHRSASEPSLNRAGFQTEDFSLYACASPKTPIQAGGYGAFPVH

Structure (SMILES)	EC50 ([1]; compounds known in the art) [µM]	EC50 ([1]; 1 h, compound for one hour) [µM]	IC50 [2] [µM]	IC50 (B-Raf V600E) [µM]
COc1ncc(-c2cnc3[nH]cc(C(=O)c4c(F)ccc(NS(=O)(=O)c5cc(F)ccc5F)c4F)c3c2)cn1	< 1	–	–	–
COc1ncc(-c2cnc3[nH]cc(C(=O)c4c(F)ccc(NS(=O)(=O)c5ccccc5F)c4F)c3c2)cn1	< 0.5	–	–	–
CCCS(=O)(=O)Nc1ccc(F)c(C(=O)c2c[nH]c3ncc(Cl)cc23)c1F	< 0.5	–	–	–
CCN(C)S(=O)(=O)Nc1ccc(F)c(C(=O)c2c[nH]c3ncc(-c4cnc(OC)nc4)cc23)c1F [Compound P-0014]	–	> 8	< 1	–
O=C(c1c(F)ccc(NS(=O)(=O)N2CCCC2)c1F)c1c[nH]c2ncc(F)c(I)c12 [Compound P-0015, N-[2,4-difluoro-3-(5-fluoro-4-iodo-1H-pyrrolo[2,3-b]pyridine-3-carbonyl)phenyl]pyrrolidine-1-sulfonamide]	–	> 10	–	< 0.1
CCN(C)S(=O)(=O)Nc1cccc(C(=O)c2c[nH]c3ncc(-c4ccc(Cl)cc4)cc23)c1F [Compound P-0019]	–	> 10	> 1	–
CCN(C)S(=O)(=O)Nc1cccc(C(=O)c2c[nH]c3ncc(-c4cnc(OC)nc4)cc23)c1F [Compound P-0020]	–	> 10	< 1	–
O=C(c1c(F)ccc(NS(=O)(=O)N2CCCC2)c1F)c1c[nH]c2ncc(-c3ccc(Cl)cc3)cc12 [Compound P-0021]	–	> 10	–	< 0.1
CN(C)c1ncc(-c2cnc3[nH]cc(C(=O)c4c(F)ccc(NS(=O)(=O)N5CCCC5)c4F)c3c2)cn1 [Compound P-0022]	–	> 10	–	–
O=C(c1c(F)ccc(NS(=O)(=O)N2CCCC2)c1F)c1c[nH]c2ncc(I)cc12 [Compound P-0024]	–	> 10	–	–
COc1ncc(-c2cnc3[nH]cc(C(=O)c4cccc(NS(=O)(=O)N(C)C5CC5)c4F)c3c2)cn1 [Compound P-0025]	–	> 10	< 1	–
CNS(=O)(=O)Nc1cccc(C(=O)c2c[nH]c3ncc(-c4cnc(OC)nc4)cc23)c1F [Compound P-0026]	–	> 10	–	–
Cc1ccc(-c2cnc3[nH]cc(C(=O)c4cccc(NS(=O)(=O)N(C)C)c4F)c3c2)cn1 [Compound P-0029]	–	> 10	–	–
CN(C)c1ccc(-c2cnc3[nH]cc(C(=O)c4cccc(NS(=O)(=O)N(C)C)c4F)c3c2)cn1 [Compound P-0030]	–	> 10	–	–
CCN(C)S(=O)(=O)Nc1cccc(C(=O)c2c[nH]c3ncc(-c4ccc(C#N)cc4)cc23)c1F [Compound P-0031]	–	> 10	–	–
CCN(C)S(=O)(=O)Nc1cccc(C(=O)c2c[nH]c3ncc(-c4cccnc4)cc23)c1F [Compound P-0032]	–	> 10	–	–
CCN(C)S(=O)(=O)Nc1cccc(C(=O)c2c[nH]c3ncc(-c4ccc(C)nc4)cc23)c1F [Compound P-0033]	–	> 10	< 1	–

Structure (SMILES)	EC50 ([1]; compounds known in the art) [µM]	EC50 ([1]; 1 h, compound for one hour) [µM]	IC50 [2] [µM]	IC50 (B-Raf V600E) [µM]
CCN(C)S(=O)(=O)Nc1cccc(C(=O)c2c[nH]c3ncc(-c4ccccc4)cc23)c1F [Compound P-0036, 3-[3-[[ethyl(methyl)sulfamoyl]amino]-2-fluoro-benzoyl]-5-phenyl-1H-pyrrolo[2,3-b]pyridine]	–	> 10	–	< 0.1
CN(C)S(=O)(=O)Nc1cccc(C(=O)c2c[nH]c3ncc(-c4ccccc4)cc23)c1F [Compound P-0037, 3-[3-(dimethylsulfamoylamino)-2-fluoro-benzoyl]-5-phenyl-1H-pyrrolo[2,3-b]pyridine]	–	> 10	–	< 0.1
COc1ncc(-c2cnc3[nH]cc(C(=O)c4cccc(NS(=O)(=O)N5CCC(OCc6ccccc6)C5)c4F)c3c2)cn1 (centres unmarked) [Compound P-0041, 3-benzyloxy-N-[2-fluoro-3-[5-(2-methoxypyrimidin-5-yl)-1H-pyrrolo[2,3-b]pyridine-3-carbonyl]phenyl]pyrrolidine-1-sulfonamide]	–	> 10	–	> 0.1
CN(C)c1ccc(-c2cnc3[nH]cc(C(=O)c4cccc(NS(=O)(=O)N5CCCC5)c4F)c3c2)cn1 [Compound P-0046, N-[3-[5-[6-(dimethylamino)-3-pyridyl]-1H-pyrrolo[2,3-b]pyridine-3-carbonyl]-2-fluoro-phenyl]pyrrolidine-1-sulfonamide]	–	> 10	–	< 0.1
CCN(C)S(=O)(=O)Nc1cccc(C(=O)c2c[nH]c3ncc(-c4ccc(C5(C#N)CC5)cc4)cc23)c1F [Compound P-0061, 5-[4-(1-cyanocyclopropyl)phenyl]-3-[3-[[ethyl(methyl)sulfamoyl]amino]-2-fluoro-benzoyl]-1H-pyrrolo[2,3-b]pyridine]	–	> 10	–	< 0.1
O=C(c1c(F)ccc(NS(=O)(=O)N2CCC(F)(F)C2)c1F)c1c[nH]c2ncc(-c3cnc(C4CC4)nc3)cc12 [Compound P-0288, N-[3-[5-(2-cyclopropylpyrimidin-5-yl)-1H-pyrrolo[2,3-b]pyridine-3-carbonyl]-2,4-difluoro-phenyl]-3,3-difluoro-pyrrolidine-1-sulfonamide]	–	> 2	–	< 0.1
CCN(C)S(=O)(=O)Nc1ccc(F)c(C(=O)c2c[nH]c3ncc(-c4ccc(C#N)cc4)cc23)c1F [Compound P-0300, 5-(4-cyanophenyl)-3-[3-[[ethyl(methyl)sulfamoyl]amino]-2,6-difluoro-benzoyl]-1H-pyrrolo[2,3-b]pyridine]	–	> 4	–	< 0.1
COc1ccnc(-c2cnc3[nH]cc(C(=O)c4cccc(NS(=O)(=O)N5CCCC5)c4F)c3c2)n1 [Compound P-0325, N-[2-fluoro-3-[5-(4-methoxypyrimidin-2-yl)-1H-pyrrolo[2,3-b]pyridine-3-carbonyl]phenyl]pyrrolidine-1-sulfonamide]	–	–	> 1	< 0.1
Cc1ccnc(-c2cnc3[nH]cc(C(=O)c4cccc(NS(=O)(=O)N5CCCC5)c4F)c3c2)n1 [Compound P-0326, N-[2-fluoro-3-[5-(4-methylpyrimidin-2-yl)-1H-pyrrolo[2,3-b]pyridine-3-carbonyl]phenyl]pyrrolidine-1-sulfonamide]	–	–	> 1	< 0.1
O=C(c1cccc(NS(=O)(=O)N2CC[C@@H](F)C2)c1F)c1c[nH]c2ncc(-c3cnc(C4CC4)nc3)cc12 [Compound P-0327, (3R)—N-[3-[5-(2-cyclopropylpyrimidin-5-yl)-1H-pyrrolo[2,3-b]pyridine-3-carbonyl]-2-fluoro-phenyl]-3-fluoro-pyrrolidine-1-sulfonamide]	–	–	< 1	< 0.1
CCNS(=O)(=O)Nc1ccc(F)c(C(=O)c2c[nH]c3ncc(-c4cnc(C5CC5)nc4)cc23)c1F [Compound P-0335, [5-(2-cyclopropylpyrimidin-5-yl)-1H-pyrrolo[2,3-b]pyridin-3-yl]-[3-(ethylsulfamoylamino)-2,6-difluoro-phenyl]methanone]	–	–	< 1	< 0.1
NS(=O)(=O)Nc1ccc(F)c(C(=O)c2c[nH]c3ncc(-c4cnc(C5CC5)nc4)cc23)c1F [Compound P-0336, 5-(2-cyclopropylpyrimidin-5-yl)-3-[2,6-difluoro-3-(sulfamoylamino)benzoyl]-1H-pyrrolo[2,3-b]pyridine]	–	> 4	–	> 0.1
CCC(C)S(=O)(=O)Nc1ccc(F)c(C(=O)c2c[nH]c3ncc(-c4ccc(Cl)cc4)cc23)c1F (centres unmarked) [Compound P-0337, N-[3-[5-(4-chlorophenyl)-1H-pyrrolo[2,3-b]pyridine-3-carbonyl]-2,4-difluoro-phenyl]butane-2-sulfonamide]	–	–	> 1	< 0.1
O=C(c1c(F)ccc(NS(=O)(=O)N2CC[C@@H](F)C2)c1F)c1c[nH]c2ncc(-c3cnc(C4CC4)nc3)cc12 [Compound P-0338, (3R)—N-[3-[5-(2-cyclopropylpyrimidin-5-yl)-1H-pyrrolo[2,3-b]pyridine-3-carbonyl]-2,4-difluoro-phenyl]-3-fluoro-pyrrolidine-1-sulfonamide]	–	–	< 1	< 0.1
O=C(c1c(F)ccc(NS(=O)(=O)N2CCC(F)C2)c1F)c1c[nH]c2ncc(-c3cnc(C4CC4)nc3)cc12 (centres unmarked) [Compound P-0339, N-[3-[5-(2-cyclopropylpyrimidin-5-yl)-1H-pyrrolo[2,3-b]pyridine-3-carbonyl]-2,4-difluoro-phenyl]-3-fluoro-pyrrolidine-1-sulfonamide]	–	–	< 1	< 0.1
CN(CC(F)(F)F)S(=O)(=O)Nc1ccc(F)c(C(=O)c2c[nH]c3ncc(-c4cnc(C5CC5)nc4)cc23)c1F [Compound P-0340, 5-(2-cyclopropylpyrimidin-5-yl)-3-[2,6-difluoro-3-[[methyl(2,2,2-trifluoroethyl)sulfamoyl]amino]benzoyl]-1H-pyrrolo[2,3-b]pyridine]	–	–	< 1	< 0.1
